Laboratory results reported in patent US20260295067A1, “PANRAS INHIBITOR ANTIBODY-DRUG CONJUGATES AND METHODS OF USE THEREOF” (NOVARTIS AG, priority 2023, published 2026).

What was measured:
CDK4 = details: Finn et al. (2009); cited from earlier work
CDK6 = details: Finn et al. (2009); cited from earlier work
H727 = assay: CellTiter-Glo proliferation/survival assay, H727; format: cell-based; details: Homo sapiens, NCI-H727, 120 h, 5 days, 0.005-100 nM
Protocol: (§1) The panRAS antibody drug conjugates were tested against the following cancer cell lines: • LU65: JCRB No. JCRB0079 cultured in RPMI-1640+10% FBS • HPAC: ATCC No. CRL-2119 cultured in DMEM:HAM's F12+5% FBS • NCI-H727: ATCC No. CRL-5815 cultured in RPMI-1640+10% FBS • SW1271: ATCC No. CRL-2177 cultured in DMEM+10% FBS
(§2) The ability of the panRAS antibody drug conjugates to inhibit cell proliferation and survival was assessed using the Promega CellTiter-Glo® proliferation assay.
(§3) Cell lines were cultured in media that is optimal for their growth at 5% CO2, 37° C. in a tissue culture incubator. Prior to seeding for the proliferation assay, the cells were split at least 2 days before the assay to ensure optimal growth density. On the day of seeding, cell viability and cell density were determined using a cell counter (Vi-Cell XR Cell Viability Analyzer, Beckman Coulter). […] Plates were incubated at 5% CO2, 37° C. for 5 days in a tissue culture incubator, after which cell viability was assessed through the addition of 25 μL of CellTiter Glo® (Promega, cat #G7573), a reagent which lyses cells and measures total adenosine triphosphate (ATP) content. Plates were incubated at room temperature for 10 minutes to stabilize luminescent signals prior to reading using a luminescence reader (EnVision Multilabel Plate Reader, PerkinElmer). […]

HPAC = assay: CellTiter-Glo proliferation/survival assay, HPAC; format: cell-based; details: Homo sapiens, 120 h, 5 days, 0.005-100 nM
Protocol: as §1, §2, §3

SW1271 = assay: CellTiter-Glo proliferation/survival assay, SW1271; format: cell-based; details: 120 h, 5 days, 0.005-100 nM
Protocol: as §1, §2, §3

SMILES	IC50 (CDK4)	IC50 (CDK6)	IC50 (H727)	IC50 (HPAC)	IC50 (SW1271)
CC(=O)c1c(C)c2cnc(Nc3ccc(N4CCNCC4)cn3)nc2n(C2CCCC2)c1=O [Palbociclib, 6-Acetyl-8-cyclopentyl-5-methyl-2-{[5-(1-piperazinyl)-2-pyridinyl]amino}pyrido[2,3-d]pyrimidin-7(8H)-one]	[…]	16 nM			
C=CC(=O)N1CCN(c2nc(=O)n(-c3c(C)ccnc3C(C)C)c3nc(-c4c(O)cccc4F)c(F)cc23)[C@@H](C)C1 [Sotorasib]			> 100 nM	> 100 nM	> 100 nM
